Measured values: patent US11692175B2, “Methods for generation of pluripotent and multipotent cells” (The USA, as represented by the Secretary, Dept. of Health …, priority 2012, dated 2023)

Columns and labels:
[1] = tested on: HUVEC; assay: Sustained proliferation / self-renewal of HUVEC in continuous culture; assay type: cell-based, human
From the text: Human umbilical vein endothelial cells (HUVEC), which express CD47, normally become senescent with repeated passage in tissue culture (FIG. 16A).
(§1) Therefore, antisense suppression of CD47 is sufficient to induce reprogramming of primary endothelial cells of a mesodermal lineage into an ectodermal lineage.

[2] = tested on: HUVEC; assay: Direct cardiomyocyte differentiation of HUVEC; assay type: cell-based, human
Description: Finally, equal numbers of HUVEC (untreated and cd47-mo treated at passage 1) were plated in 6-well plates with EGM2 media for 24 hours. The next day, EGM2 medium was replaced with cardiomyocyte differentiation media (Millipore). […] CD47-MO cells survived up to 10 days. Thus, antisense suppression of CD47 is sufficient to induce reprogramming of primary endothelial cells into cardiomyocyte lineage.

[3] = tested on: HUVEC; assay: Direct neural differentiation of HUVEC; assay type: cell-based, human
Description: as §1
(§2) A new vial of HUVEC at passage 1 was thawed and split in to two 25 cm^3 Nunc tissue culture flasks. One flask (P1) was treated with CD47-MO (2.5 μM). The other was kept as untreated. The HUVEC were transferred in to new Nunc tissue culture flask 75 cm^3 and cultured for 2 weeks using EGM2 medium. After 2 weeks, the HUVEC (untreated and CD47-MO treated) were assessed for generation of EBs, neural differentiation, and cardiomyocytes differentiation. […] Direct Neural Differentiation media: Equal numbers of HUVEC cells (untreated and cd47-mo) were cultured with neural basal media (same for mouse lung endothelial cells) for 6 days. […] After 6 days, the neural basal media was replaced with neural differentiation media (same used for mouse lung endothelial cells). None of the untreated HUVEC survived.

[4] = tested on: HUVEC; assay: MTS proliferation assay of treated HUVEC; assay type: cell-based, human
Description: Cell proliferation assays: Equal numbers of mouse lung endothelial cells from WT and CD47 (Passage 1) were plated in 96 well plates using RPMI+1% FBS. After 72 hours, net cell proliferation was assessed by the increase in formazan absorbance versus controls assessed at time 0 using Cell Titer 96R aqueous MTS kit (Promega, Madison, Wis.). DNA synthesis was measured using a BrdU Assay (EMD Biosciences, Billerica, Mass.).
Proliferative capacities of the treated HUVEC (CD47 morpholino, 7N3 peptide, or 604 control peptide) were assessed using MTS assays.

[5] = tested on: WT splenic T cells from c-Myc-EGFP knock-in mice; assay: c-Myc mRNA after CD47 morpholino knockdown in T cells; assay type: cell-based, mouse
Description: RNA extraction and Real Time PCR: Total RNA was extracted using TRIzol® reagent (Invitrogen, Rockville, Md.) 24-36 hours after transfection or as indicated. Harvested mouse tissues were frozen in liquid nitrogen or placed into RNA Later™ RNA Stabilization Reagent (Ambion, Life Technologies, Grand Island, N.Y.). Whole organs (lungs, spleen, kidney, testis, skeletal muscle, brain, heart, and liver) were homogenized in TRIzol® reagent, and RNA was isolated, cDNA was prepared using First Maxima First Strand cDNA Synthesis kit for RT-qPCR (Fermentas Life Sciences, Glen Burnie, Md.). Real Time PCR was performed using the primers listed herein as SEQ ID NOs: 3-34, and SYBR Green PCR master reaction mix (AB applied Sciences, Life Technologies, Grand Island, N.Y.) on an MJ Research OPTICON I instrument (Bio-Rad) with the following amplification program: 95° C. for 15 minutes, followed by 40 cycles of 95° C. for 15 seconds, 58° C. for 20 seconds, 72° C. for 25 seconds, and 7° C. for 1 minute. Melting curves were performed for each product from 30° C. to 95° C. reading every 0.5° C. with a 6-second dwell time. The fold changes in mRNA expression were calculated by normalizing to hypoxanthine phosphoribosyltransferase (HPRT1) and TATA-box binding protein associated factor (TAF9) for mouse tissues and endothelial cells, or β-2 microglobulin (B2M) mRNA levels for spleen and isolated splenocytes. […]

[6] = tested on: CD47; assay: In vivo morpholino knockdown of CD47 in WT mice; parameters: species or system mouse; details: for Oct4 mRNA level in spleen / Sox2 mRNA level in spleen / c-Myc mRNA level in spleen: at 48 hours, WT mice; for CD47 protein expression in vivo: intraperitoneal injection into WT mice
Description: RNA extraction and Real Time PCR: Total RNA was extracted using TRIzol® reagent (Invitrogen, Rockville, Md.) 24-36 hours after transfection or as indicated. Harvested mouse tissues were frozen in liquid nitrogen or placed into RNA Later™ RNA Stabilization Reagent (Ambion, Life Technologies, Grand Island, N.Y.). Whole organs (lungs, spleen, kidney, testis, skeletal muscle, brain, heart, and liver) were homogenized in TRIzol® reagent, and RNA was isolated, cDNA was prepared using First Maxima First Strand cDNA Synthesis kit for RT-qPCR (Fermentas Life Sciences, Glen Burnie, Md.). Real Time PCR was performed using the primers listed herein as SEQ ID NOs: 3-34, and SYBR Green PCR master reaction mix (AB applied Sciences, Life Technologies, Grand Island, N.Y.) on an MJ Research OPTICON I instrument (Bio-Rad) with the following amplification program: 95° C. for 15 minutes, followed by 40 cycles of 95° C. for 15 seconds, 58° C. for 20 seconds, 72° C. for 25 seconds, and 7° C. for 1 minute. Melting curves were performed for each product from 30° C. to 95° C. reading every 0.5° C. with a 6-second dwell time. The fold changes in mRNA expression were calculated by normalizing to hypoxanthine phosphoribosyltransferase (HPRT1) and TATA-box binding protein associated factor (TAF9) for mouse tissues and endothelial cells, or β-2 microglobulin (B2M) mRNA levels for spleen and isolated splenocytes. B2M was used for normalization of mRNA levels in human cells. Note that the total RNA yield per cell was higher for all CD47-null and CD47-deficient cells and tissues as compared to WT.
CD47 knockdown in T cells and in WT mice: A translation-blocking antisense morpholino oligonucleotide complementary to human and murine CD47 ([…]; SEQ ID NO: 35) and a 5-base mismatch control morpholino (CGTgACAGcCAcGACCgACTGCgCA; SEQ ID NO: 36) were obtained from GeneTools, LLC (Philomath, Oreg.) as previously described (Isenberg et al., Circ Res 100, 712-720, 2007). Primary T cells isolated from c-Myc EGFP knock-in mouse were transfected using morpholinos (2.5 μM) along with Endo-porter (GeneTools, LLC) delivery reagent according to manufacturer's instructions. Mice were treated by injection of 750 μl of 10 μM morpholino in saline as described (Maxhimer et al., Sci. Transl. Med. 1, 3ra7, 2009). Organs were harvested for mRNA isolation after 48 hours.

[7] = tested on: HUVEC; assay: EB formation of HUVEC in serum free medium; assay type: cell-based, human; details: after 3-6 days
Description: as §2

Sequence: CGTCACAGGCAGGACCCACTGCCCA (all phosphorodiamidate morpholino (PMO)) [CD47 morpholino]
- self-renewal ([1]; antisense CD47 morpholino at 2.5 μM, one treatment): enabled self-renewal
- proliferative response after second treatment ([1]; second treatment, same concentration (2.5 μM)): enhanced proliferative response
- survival in cardiomyocyte differentiation media [2]: up to 10 days
- survival and differentiation in cardiomyocyte differentiation media ([2]; untreated HUVEC unable to survive after 3 days): survived and underwent differentiation
- survival in neural basal media ([3]; 6 days, CD47-MO 2.5 μM): survived better than untreated
- phenotype in neural differentiation media ([3]; after 6 days neural basal media): exhibited neural phenotype
- appearance of cells with neuronal phenotypes ([3]; direct transfer into neural differentiation medium): sporadic appearance of cells with neuronal phenotypes
- survival in neural differentiation media ([3]; numbers were low): up to 15 days
- proliferation (MTS) ([4]; 3 weeks post-treatment, relative to control HUVEC): significantly increased proliferation
- proliferation (MTS) ([4]; 6 days post-treatment): slight but not significant enhancement of proliferation
- increase in c-Myc mRNA level ([5]; at 24 h, morpholino 2.5 μM): 7 fold
- c-Myc mRNA expression (FIG. 6A) ([5]; in words, legend says WT lung endothelial cells): increases
- Oct4 mRNA level in spleen [6]: induction
- Sox2 mRNA level in spleen [6]: induction
- c-Myc mRNA level in spleen [6]: induction
- Oct4 mRNA level in spleen ([6]; listed as CD47-MO): elevates
- Sox2 mRNA level in spleen ([6]; listed as CD47-MO): elevates
- c-Myc mRNA level in spleen ([6]; listed as CD47-MO): elevates
- CD47 protein expression in vivo [6]: significantly decreased
- CD47 protein expression in vivo ([6]; listed as CD47-morpholino): knockdown
- cell aggregation in serum free medium [7]: formed different phenotype cell aggregation
